These compounds were tested against T1, P. aeruginosa PBP3 (Pseudomonas aeruginosa, UniProt G3XD46) (assay: Bocillin-FL fluorescence polarization competition binding assay, P. aeruginosa PBP3). Conditions: fluorescence polarization competition binding assay using Bocillin-FL.
T1 construct: made in house
T1 sequence (G3XD46 whole entry): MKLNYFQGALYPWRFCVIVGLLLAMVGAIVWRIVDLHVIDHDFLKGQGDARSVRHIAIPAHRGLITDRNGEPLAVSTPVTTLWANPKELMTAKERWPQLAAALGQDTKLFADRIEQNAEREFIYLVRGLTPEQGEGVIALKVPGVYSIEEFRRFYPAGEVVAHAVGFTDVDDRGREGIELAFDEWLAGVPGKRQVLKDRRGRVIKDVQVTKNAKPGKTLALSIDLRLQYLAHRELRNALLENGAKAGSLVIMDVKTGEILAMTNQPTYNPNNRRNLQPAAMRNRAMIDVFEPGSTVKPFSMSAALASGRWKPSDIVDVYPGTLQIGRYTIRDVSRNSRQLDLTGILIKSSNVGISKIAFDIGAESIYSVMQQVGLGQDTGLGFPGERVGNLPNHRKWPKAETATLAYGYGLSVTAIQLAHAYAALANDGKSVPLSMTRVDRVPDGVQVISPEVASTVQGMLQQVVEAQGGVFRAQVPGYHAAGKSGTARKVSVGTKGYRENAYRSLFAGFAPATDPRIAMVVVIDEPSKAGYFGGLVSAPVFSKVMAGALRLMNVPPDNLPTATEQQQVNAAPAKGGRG
Procedure, shortened: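 Inhibitor competition with Bocillin-FL for P. aeruginosa PBP3 was followed by fluorescence polarization on a Cytation3 (BioTek) reader, using g-factor 0.96, 490 nm excitation and 520 nm emission. The enzyme was at 0.75 μM and the probe at 0.1 μM in Hepes/NaCl/glycerol buffer, 80 μl per well. FP was recorded immediately after probe addition for up to 60 minutes. Potency was expressed as EC50, the concentration that reduces bound probe by 50%.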
For `NS(=O)(=O)c1cccc(C(NC(=O)N2CCN(CCF)C(=O)C2=O)C(=O)N[C@H]2Cc3cccc(C(=O)O)c3OB2O)c1` (stereo partly drawn) [Example 100, (3R)-3-(2-(4-(2-fluoroethyl)-2,3-dioxopiperazine-1-carboxamido)-2-(3-sulfamoylphenyl)acetamido)-2-hydroxy-3,4-dihydro-2H-benzo[e][1,2]oxaborinine-8-carboxylic acid], the “P. aeruginosa PBP3 Potency” value was “D (D represents a potency <10 μM)”.
With `CCN1CCN(C(=O)NC(C(=O)N[C@H]2Cc3cccc(C(=O)O)c3OB2O)c2ccc(O)c(F)c2F)C(=O)C1=O` (stereo partly drawn) [Example 173] the “P. aeruginosa PBP3 Potency” value was “D (D represents a potency <10 μM)”.
In the case of `O=C(O)c1cccc2c1OB(O)[C@@H](NC(=O)C(NC(=O)N1CCNC1=O)c1c(F)cc(O)cc1F)C2` (stereo partly drawn) [Example 156, (3R)-3-(2-(2,6-difluoro-4-hydroxyphenyl)-2-(2-oxoimidazolidine-1-carboxamido)acetamido)-2-hydroxy-3,4-dihydro-2H-benzo[e][1,2]oxaborinine-8-carboxylic acid], the “P. aeruginosa PBP3 Potency” value is reported as “D (D represents a potency <10 μM)”.
In the case of `CCN1CCN(C(=O)NC(C(=O)N[C@H]2Cc3cccc(C(=O)O)c3OB2O)c2c(F)c(O)cc(O)c2F)C(=O)C1=O` (stereo partly drawn) [Example 106, (3R)-3-(2-(2,6-difluoro-3,5-dihydroxyphenyl)-2-(4-ethyl-2,3-dioxopiperazine-1-carboxamido)acetamido)-2-hydroxy-3,4-dihydro-2H-benzo[e][1,2]oxaborinine-8-carboxylic acid], the “P. aeruginosa PBP3 Potency” value is reported as “D (D represents a potency <10 μM)”.
With `NCCN1CCN(C(=O)N[C@@H](C(=O)N[C@H]2Cc3cccc(C(=O)O)c3OB2O)c2ccc(O)c(F)c2F)C(=O)C1=O` (single isomer, unassigned) [Example 170] the “P. aeruginosa PBP3 Potency” value was “D (D represents a potency <10 μM)”.
`NCCN1CCN(C(=O)N[C@H](C(=O)N[C@H]2Cc3cccc(C(=O)O)c3OB2O)c2cc(F)c(O)c(F)c2)C(=O)C1=O` (single isomer, unassigned) [Example 158] was tested, and the “P. aeruginosa PBP3 Potency” value was “C (C represents a potency between 10 and 30 μM)”.
For `CCN1CCN(C(=O)NC(C(=O)N[C@H]2Cc3cccc(C(=O)O)c3OB2O)c2cc(F)c(O)c(F)c2F)C(=O)C1=O` (stereo partly drawn) [Example 172, (3R)-3-(2-(4-ethyl-2,3-dioxopiperazine-1-carboxamido)-2-(2,3,5-trifluoro-4-hydroxyphenyl)acetamido)-2-hydroxy-3,4-dihydro-2H-benzo[e][1,2]oxaborinine-8-carboxylic acid], the “P. aeruginosa PBP3 Potency” value was “D (D represents a potency <10 μM)”.
In the case of `NCCN1CCN(C(=O)NC(C(=O)N[C@H]2Cc3cccc(C(=O)O)c3OB2O)c2ccc(C(=O)O)c(Cl)c2)C(=O)C1=O` (stereo partly drawn) [Example 153, (3R)-3-(2-(4-(2-aminoethyl)-2,3-dioxopiperazine-1-carboxamido)-2-(4-carboxy-3-chlorophenyl)acetamido)-2-hydroxy-3,4-dihydro-2H-benzo[e][1,2]oxaborinine-8-carboxylic acid], the “P. aeruginosa PBP3 Potency” value is reported as “D (D represents a potency <10 μM)”.
For `CCN1CCN(C(=O)N[C@@H](C(=O)N[C@H]2Cc3cccc(C(=O)O)c3OB2O)c2ccc(C(=O)O)cc2O)C(=O)C1=O` (single isomer, unassigned) [Example 144], the “P. aeruginosa PBP3 Potency” value was “D (D represents a potency <10 μM)”.
`NCCN1CCN(C(=O)N[C@H](C(=O)N[C@H]2Cc3cccc(C(=O)O)c3OB2O)c2ccc(O)c(F)c2F)C(=O)C1=O` (single isomer, unassigned) [Example 169] was tested, and the “P. aeruginosa PBP3 Potency” value was “C (C represents a potency between 10 and 30 μM)”.
`CS(=O)(=O)N1CCN(C(=O)N[C@@H](C(=O)N[C@H]2Cc3cccc(C(=O)O)c3OB2O)c2c(F)cc(O)cc2F)C1=O` (single isomer, unassigned) [Example 135] was tested, and the “P. aeruginosa PBP3 Potency” value was “D (D represents a potency <10 μM)”.
For `O=C(O)c1cccc2c1OB(O)[C@@H](NC(=O)[C@H](NC(=O)N1CCN(CCF)C(=O)C1=O)c1c(F)cc(O)cc1F)C2` (single isomer, unassigned) [Example 126], the “P. aeruginosa PBP3 Potency” value was “D (D represents a potency <10 μM)”.

Source: patent US20230114728A1 (Venatorx Pharmaceuticals, Inc., priority 2019, published 2023)
